Source: US8344118B2, “Preparation and isolation of 5′ capped MRNA” (Applied Biosystems, LLC, priority 2007, dated 2013)

Assays:
T7 RNA polymerase = T7 RNA polymerase (Escherichia phage T7, UniProt P00573); conditions: linearized pTri β actin vector template, 37° C. for 2 hr, 20% dPAGE gel, FIG. 9
Protocol: A Gel Shift assay was performed by using the MAXIscript™ kit (Ambion, Inc.) following the manufacturer's protocol. The assay determines if the modified cap analogs were substrates for T7 RNA polymerase. Typical 20 μL of T7 RNA polymerase transcriptions contained the following reagents at the final concentrations indicated: linearized pTri β actin vector template, 0.5 μg; ATP, 2 mmol; GTP, 0.4 mmol; 1.6 mmol each CTP and UTP, in a separate reaction; 10× reaction buffer, 4×; T7 RNA polymerase, 50 units/μL; (α-^32P) ATP, 800 (Ci/mmol); and DEPC water. The control reaction was a normal in vitro transcription reaction, in which no cap analog was added. The transcription reactions were incubated at 37° C. for 2 hr, after which the reaction mixtures were then applied to a 20% dPAGE gel. The assay detects specific structure or size changes described as gel shifts. When structure change or size change occurs it creates complexes that migrate slower during gel electrophoresis than the original complex.

[1] = tested on: phage RNA polymerase such as T7, T3 or SP6; conditions: m^7GpppG to GTP (4:1); cited from earlier work

Sequence of T7 RNA polymerase (P00573 whole entry): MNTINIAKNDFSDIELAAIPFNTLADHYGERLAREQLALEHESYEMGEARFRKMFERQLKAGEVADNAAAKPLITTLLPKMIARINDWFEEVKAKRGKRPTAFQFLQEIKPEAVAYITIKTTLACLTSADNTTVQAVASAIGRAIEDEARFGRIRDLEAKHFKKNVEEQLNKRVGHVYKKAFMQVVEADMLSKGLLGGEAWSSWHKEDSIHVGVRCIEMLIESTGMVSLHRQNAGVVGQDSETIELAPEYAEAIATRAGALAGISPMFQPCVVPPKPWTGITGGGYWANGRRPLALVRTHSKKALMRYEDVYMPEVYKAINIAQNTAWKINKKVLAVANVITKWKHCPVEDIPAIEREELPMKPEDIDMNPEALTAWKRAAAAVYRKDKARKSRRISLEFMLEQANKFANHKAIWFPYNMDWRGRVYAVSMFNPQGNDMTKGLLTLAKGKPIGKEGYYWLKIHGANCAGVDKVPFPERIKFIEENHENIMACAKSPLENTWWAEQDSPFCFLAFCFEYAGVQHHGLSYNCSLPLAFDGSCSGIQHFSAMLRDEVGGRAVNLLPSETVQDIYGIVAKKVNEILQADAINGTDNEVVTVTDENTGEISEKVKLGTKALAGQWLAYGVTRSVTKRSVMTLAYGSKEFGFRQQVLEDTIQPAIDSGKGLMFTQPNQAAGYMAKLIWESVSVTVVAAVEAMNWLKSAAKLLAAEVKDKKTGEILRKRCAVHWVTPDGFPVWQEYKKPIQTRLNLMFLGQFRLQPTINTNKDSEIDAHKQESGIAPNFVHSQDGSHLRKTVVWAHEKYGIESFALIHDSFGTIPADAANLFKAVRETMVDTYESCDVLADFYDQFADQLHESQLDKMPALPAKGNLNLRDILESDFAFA

SMILES	capped RNA (T7 RNA polymerase)	capped RNA [1] [%]
NCC=Cc1cn(C2OC(COP(=O)(O)OP(=O)(O)OP(=O)(O)OP(=O)(O)OCC3OC(n4cnc5c(=O)[nH]c(N)nc54)C(O)C3O)C(O)C2O)c(=O)[nH]c1=O (centres unmarked) [Compound 1, G[5′]pppp[5′]U-Aminoallyl]	about 65%	–
Cn1c[n+]([C@@H]2O[C@H](COP(=O)(O)OP(=O)(O)OP(=O)(O)OC[C@H]3O[C@@H](n4cnc5c(=O)[nH]c(N)nc54)[C@H](O)[C@@H]3O)[C@@H](O)[C@H]2O)c2nc(N)[nH]c(=O)c21 [m^7GpppG, m^7G(5′)ppp(5′)G]	–	80
